One series addresses human recombinant CyPA (Homo sapiens, UniProt P62937). The series can be described thus: Rotamase (PPIase) inhibition, chymotrypsin-coupled cuvette assay, human recombinant CyPA. The series is classed as biochemical. Particulars: Table A, value without asterisk: human recombinant CyPA. The text has this: A number of substrates for rotamase are known in the art or can be derived from those known. Typically, the substrate contacts a sample containing a protein with rotamase activity and the conversion of the substrate is detected after a period of time. The method for detecting conversion of the substrate will vary with the particular substrate chosen. One method has been termed the Ki test (See Harding, et al., Nature, 341:758-760 (1989); and Holt et al., J. Am. Chem. Soc., 115:9923-9938). The cis-trans isomerization of an alanine-proline bond in a model substrate, N-succinyl-Ala-Ala-Pro-Phe-p-nitroanilide (SEQ ID NO: 1), is monitored spectrophotometrically in a chymotrypsin-coupled assay. The action of chymotrypsin releases p-nitroaniline from only the trans form of the substrate. The amount of p-nitroaniline can be monitored in a spectrophotometer, for example. Other methods of detecting the presence of p-nitroaniline can also be used. The inhibition of this reaction caused by different concentrations of inhibitor is determined and the data are analyzed as a change in first-order rate constant as a function of inhibitor concentration, which yields the Ki value.
The following were added to a plastic cuvette: 950 μl of ice cold assay buffer (25 mM HEPES, pH 7.8, 100 mM NaCl), 10 μL of CyP A (2.5 μM in 10 mM Tris-Cl pH 7.5, 100 mM NaCl, 1 mM dithiothreitol), 25 μL of chymotrypsin (50 mg/ml in 1 mM HCl), and 10 μL of test compound, at various concentrations, in dimethyl sulfoxide. The reaction was initiated by the addition of 5 μL of substrate (succinyl-Ala-Phe-Pro-Phe-para-nitroanilide (SEQ ID NO: 1), 5 mg/mL in 470 mM LiCl in trifluoroethanol). The absorbance at 390 nm versus time was monitored for 90 seconds using a spectrophotometer and the rate constants were determined from the absorbance versus time data files.
The IC50 values which were obtained for representative compounds are given in the following Table A, and refer to the concentration that inhibits 50% of the rotamase activity in a sample.
(§1) The Cyclophilin utilized was a human recombinant CyPA, [Yoo et al., J. Mol. Biol., 269 (1997) 780-95].

Series [1] addresses T1, recombinant rat CyPA-GST fusion protein (Rattus norvegicus, UniProt P10111).
T1 construct: made in house; host or cells: E. coli BL21
Put plainly: Rotamase (PPIase) inhibition, chymotrypsin-coupled cuvette assay, rat CyPA-GST fusion protein. As to conditions: Table A, value with asterisk: recombinant rat CyPA-GST fusion protein. The series is classed as biochemical.

Series [2] has as its target T1, recombinant rat CyPA-GST fusion protein. Put plainly: Semiautomated microtiter plate assay of rotamase activity inhibition, rat CyPA-GST fusion protein. The series is classed as biochemical. Particulars: Table B, value with asterisk: recombinant rat CyPA-GST fusion protein. As to the method:
as §1
The resulting fragment (573 base pairs) was cloned into pCRII and amplified. The CyP sequence was cut out with Sma1 and EcoR1 and cloned into the Sma1/EcoR1 sites in pGEX2TK (Pharmacia). This plasmid was transformed into BL21 E. coli cells for expression of the GST-CyPA fusion protein.
Rotamase inhibition was determined using a semiautomated microtiter plate assay modification of the above described assay [see Küllertz et al., Clin. Chem. 44, 502-508 (1998)]. All dilutions of CyPA, peptide substrate, and chymotrypsin were made in 35 mM ice-cold HEPES buffer. Fifty μL of CyPA solution is added to 50 μL of the peptide substrate solution (Phe-Pro-Phe p-nitroanilide, 0.16 mg/ml) in a glass microtiter well plate (the concentration of human recombinant CyP being adjusted so that the reaction rate is increased by a factor of 3 as compared to an uncatalyzed control reaction wherein the peptide substrate is degraded by chymotrypsin alone, in the absence of CyPA and test compound). Using a Beckman Multimek™ 96 automated 96-channel pipettor, 5 μL of test compound solution, or a DMSO blank, were added to each well for a 30 minute preincubation at 4° C. One hundred μL of chymotrypsin solution (1 mg/mL) were added to each well and the absorbance at 390 nm versus time was monitored for 9-10 minutes using a BioRad Ultramark plate reader maintained at 4° C. and the rate constants were determined from the absorbance versus time data files.
IC50 values which were obtained for representative compounds are presented in the following Table B. The cyclophilin utilized was a human recombinant CyPA. […] While CyP A was used in these examples, other CyP proteins can be substituted.

The subject of series [3] is SMI-32 immunoreactive neurons of lumbar spinal cord slices. The series can be described thus: Neuroprotection assay in spinal cord slice preparations (THA-induced cell death). The series is classed as cell-based, Sprague-Dawley rat. As to conditions: THA 200 μM + compound 10 μM. The procedure:
All cultures were derived from postnatal day 8 (P8) Sprague-Dawley rat lumbar spinal cord slices of 325 micrometer thickness, prepared using a commercially available McIlwain tissue chopper. Each experiment consisted of two 6-well plates with 5 slices from 4 different animals per well. Media changes were performed every 3 to 4 days. Cultures were treated with THA [L(−)-threo-3-hydroxyaspartic acid; Tocris Cookson Inc., Ballwin, Mo.] at 200 μM+compound (10 μM) after one week in culture. The control was an untreated sample with 0.1% DMSO as vehicle. The THA control was a THA treated sample with 0.1% DSMO as vehicle. Two wells were used per condition. One media change with new THA and compounds was performed. […]
Slices were permeabilized with 100% cold methanol for 10 minutes, subsequently washed 3×in 0.1M phosphate buffer and transferred to staining wells. […] Quantification of surviving neurons was performed on a Zeiss Axiovert microscope. Neuronal survival was determined by observing an intact neuronal cell body with processes located ventrally of the central canal in each hemisphere. […] Each hemisphere was counted individually. The statistics were performed with StatView™ software on a minimum of three different experiments per condition and significance was determined as compared to THA control. […]

The values that follow come from patent publication US6656971B2, “Trisubstituted carbocyclic cyclophilin binding compounds and their use” (Guilford Pharmaceuticals Inc., priority 2001, dated 2003).

Structures are written as SMILES.

As a reminder, the IC50 is the concentration that gives 50% inhibition. By melting point is commonly meant the temperature of the solid-liquid transition.

T1 sequence (P10111 2-164): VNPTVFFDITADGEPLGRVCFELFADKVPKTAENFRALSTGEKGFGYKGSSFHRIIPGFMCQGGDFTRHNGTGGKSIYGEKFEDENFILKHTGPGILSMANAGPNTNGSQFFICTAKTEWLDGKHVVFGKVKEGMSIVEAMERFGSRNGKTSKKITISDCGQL
human recombinant CyPA, sequence (P62937 whole entry): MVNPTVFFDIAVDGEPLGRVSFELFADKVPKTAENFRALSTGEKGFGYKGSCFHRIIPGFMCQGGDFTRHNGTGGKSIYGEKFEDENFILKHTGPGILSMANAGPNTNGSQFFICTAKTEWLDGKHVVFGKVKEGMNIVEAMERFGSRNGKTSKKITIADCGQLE

As to `O=C(Nc1cc(OCc2cccc3ccccc23)ccc1Br)c1cccc(C(F)(F)F)c1` [Compound 34, N-[2-bromo-5-(naphthylmethoxy)phenyl][3-(trifluoromethyl)phenyl]formamide], the melting point fell in the range of 125 to 127 °C. At human recombinant CyPA, the IC50 turned out to be 11.7 µM. In addition, the IC50 in series [1] turned out to be 12 µM. Moreover, the IC50 in series [2] turned out to be 9.72 µM.

For the compound `O=C(Nc1ccc(Cl)c(Cl)c1)c1cc(OCc2ccccc2)cc(C(=O)Nc2ccc(Cl)c(Cl)c2)c1` [Compound 43], the IC50 in series [1] was 0.377 µM; in series [2], 0.287 µM. Further, the “protection from THA-induced cell death” value in series [3] is on record as “complete protection”. The “SMI-32 immunoreactive neurons per ventral hemisphere” value in series [3] (untreated control 26.4±4.2, THA control 18.97±2.04 (mean±standard error)) came to 28.14±2.4 cells/ventral hemisphere.
